In one data set the test system is Pythium splendens. The experiment in a line: Pythium splendens in green bean with PA seed coating (Example 22). It counts as in vivo. The method, then: FIG. 25: (a) effect of a 500 μM piperonylic acid coating compared to a mock coating on germination in soil with or without Pythium splendens (PA: piperonylic acid coating, no Pythium; CON: mock coating, no Pythium; PA+Ps: piperonylic acid coating, Pythium splendens; CON+Ps: mock coating, Pythium splendens); N=45. (b) plant health score of emerged seedlings fourteen days after the start of the experiment. Scores: 0=seedling died after emergence; 1=seedling alive but stunted; 2=seedling healthy. (c) primary root length fourteen days after the start of the experiment, with bars indicating means and error bars standard deviation.

The test system of another data set is tomato. The experiment in a line: Phytotoxicity of foliar spray in uninfected tomato (Example 1). Type of data set: in vivo, Solanum lycopersicum. To be noted: 500 μM foliar spray, 8 plants per treatment. As to the method: Tomato seeds, cv. Moneymaker (Vreeken's Zaden, Dordrecht, the Netherlands) were sown on autoclaved potting soil coveed with polyethylene film and placed at 24° C. for eight days. Seedlings were then transferred to individual SAP-filled pots and placed in a growth chamber at 24° C. Plants were watered three times per week with 25 ml of quarter-strength Hoagland solution for the first two weeks and half-strength thereafter.
Unless otherwise mentioned, all chemicals for nematode experiments were applied as a foliar spray consisting of the target compound at a concentration of 300 μM together with 0.1% (v/v) Tween 20 surfactant (Calbiochem) in distilled water. Again unless otherwise mentioned, all treatments for the nematode experiments were carried out three times: one and eight days before pathogen inoculation and seven days after pathogen inoculation. In all cases, plants were sprayed until run-off with an atomizer.
Short-term phytotoxicity experiments (Example 1) were analyzed using non-parametric methods. For each variable, overall significance was determined using the Kruskal-Wallis test (Kruskal and Wallis, 1952), followed by a posthoc Conover-Iman test (Conover and Iman, 1981) with Hommel multiplicity correction (Hommel, 1988) if the Kruskal-Wallis test was significant. When only two groups were present, the Wilcoxon-Mann-Whitney test was used (Mann and Whitney, 1947).
To test whether C4H inhibitors induce phytotoxic effects in crops, uninfected tomato, wheat and carrot were treated with piperonylic acid (PA), 4-iodobenzoic acid (4-IBA) and piperic acid (PIA) at a concentration of 500 μM through foliar application. At harvest, leaf area (or shoot length in the case of wheat) and primary root length were recorded. The BBCH developmental stage (Lancashire et al., 1991), a measure of developmental retardation, was used to test for effects on development. Finally, the presence of visible signs of phytotoxicity such as chlorosis, discoloration or necrosis was recorded.

Data set [1] concerns Botrytis cinerea (isolate R16). In words: Botrytis cinerea infection of detached tomato leaves (Example 13). Type of data set: in vivo. Details: dose or concentration left out as unconfirmed. The note with it: spray containing PA, four days after inoculation, vs control. As to the method: Tomato plants (cv. Moneymaker) were grown for four weeks in potting soil as described in the plant material section. Six hours before inoculation, the third leaf of each tomato plant was detached. The petioles were wrapped in wet tissue paper and the leaves were placed on a petri dish. […] Finally, the tray was covered with a plastic autoclave bag to keep humidity at 100%.
Botrytis cinerea (line R16) spores were obtained as described in the fungal culture section, centrifuged for five minutes at 3000 rpm and resuspended to a concentration of 1.0×10^6 spores per ml with a solution of 0.01 M glucose and 0.0067 M KH2PO4. The spore suspension was left at room temperature for one hour to trigger germination. […]
Six drops of spore suspension of 15 μl each were spotted on each detached tomato leaf, after which the tray was covered again. The tray was placed at room temperature away from direct sunlight and left for four days. At this point, chlorophyll fluorescence measurements were taken to assess the success of infection. Two parameters were assessed: whether the B. cinerea lesion had spread beyond the droplet area (successful invasion) and the total surface area of successfully established lesions (post-invasion growth).

Data set [2] has as its system tobacco cell cultures (Nicotinium tabacum BY2). To be noted: Schoch et al., 2002; cited from earlier work.
Another data set concerns Meloidogyne graminicola. The experiment in a line: Application regimens of PA, rice - Meloidogyne graminicola (Example 8). It counts as in vivo. As to the method: Seed coatings were applied by dipping seeds in a coating solution containing 20 g/I high viscosity carboxymethylcellulose (Sigma-Aldrich, Saint Louis, USA) in distilled water as well as 300 μM of the target compound. Seeds were then dried overnight at room temperature.
Infection experiments with M. graminicola were performed by inoculating host plants 14 days after transfer to SAP by introducing the desired amount of J2 juveniles next to the root system using a micro pipette. Rice plants (cv. Nipponbare or Kitaake) were inoculated with 250 J2 juveniles per plant; wheat plants (cv. Sahara) were inoculated with 600 J2 juveniles per plant. Plants were harvested 14 days after inoculation. At this point, the plants were phenotyped by measuring the shoot and root length with a ruler, counting the number of adventitious roots and in some experiments by measuring leaf area using the EasyLeafArea software (Easlon and Bloom, 2014) and by determining shoot dry mass after 72 hours of drying in an oven at 70° C. Root systems were then stained in acid fuchsine as described in (Byrd et al., 1983) and left to destain in glycerol with 1 ml/l fuming HCl added for approximately ten days. The number of galls and nematodes was then counted using a binocular microscope.
Four application regimes for PA on the rice-Meloidogyne graminicola interaction were compared: a seed coating treatment, a single high-dose foliar spray prior to infection, a single high-dose foliar spray after infection and repeated lower-dose foliar sprays throughout the growing period.
One hundred rice seeds (cv. Nipponbare) were randomly divided into five groups of twenty seeds: a control group, seeds that were coated with carboxymethylcellulose containing 300 μM PA (PA coating), a group that would be foliarly sprayed with 100 μM PA solution three times per week (PA continuous), a group that would be sprayed once with a 300 μM PA solution one day prior to nematode inoculation (PA−1 dpi) and a group that would be sprayed once with a 300 μM PA solution seven days after nematode inoculation (PA+7 dpi).
The experiment was carried out as per the materials and methods described in Materials and Methods, sections Oryza sativa (rice) and Meloidogyne graminicola culture.

Data set [3] concerns Alternaria solani, Botrytis cinerea R16, Fusarium graminearum PH1 and Fusarium graminearum GFP. Type of data set: cell-based.
For data set [4], the system named is Arabidopsis thaliana seedlings. The note with it: continuous exposure; Steenackers et al. 2016; cited from earlier work.
Setting [5] is: PA +7 dpi: sprayed once with 300 μM PA seven days after inoculation, n = 8.
The mark [6] stands for this setting: PA coating: seeds coated with carboxymethylcellulose solution containing 300 μM PA, n = 7.
Setting [7] is: PA continuous: sprayed three times a week with 100 μM PA, n = 9.
The mark [8] stands for this setting: PA −1 dpi: sprayed once with 300 μM PA one day before inoculation, n = 8.

Turning to `O=C(O)c1ccc2c(c1)OCO2` [PA, Piperonylic acid], the “emergence in soil containing P. splendens” value in the data set on Pythium splendens (500 μM PA seed coating vs mock coating) is reported as “did not improve emergence”. Further, the “seedling health after emergence” value with Pythium splendens (500 μM PA seed coating vs mock coating, fourteen days) is listed as “significantly improved”. Besides, in the data set on Pythium splendens (500 μM PA seed coating, fourteen days), the “primary root length in P. splendens-infested soil vs control-coated seeds” value is “longer”. In the data set with tomato (mean ± standard deviation), the “Leaf Area” value is listed as 11.83 ± 1.70 cm^2 and the Root length is on record as 7.95 ± 1.83 cm. This compound also returned a BBCH stage with tomato (median ± interquartile range) of 102 ± 1.0. Besides, in data set [1], the “change of mean size of successfully established/spreading lesions” value is −62% and the “change of number of inoculation spots in which fungal lesions developed” value is −50%. For the same compound, in data set [2], the “accumulation of salicylic acid” value is recorded as “induces the accumulation of the defense hormone salicylic acid”. In the data set with Meloidogyne graminicola (setting [5]), the “Fraction of small galls” value came out at 0.91 ± 0.11, the Number of galls came to 18.1 ± 13.6 and the “Number of galls per AR” value worked out at 1.1 ± 0.6. In the data set on Meloidogyne graminicola (setting [6]), the “Fraction of small galls” value was determined as 0.96 ± 0.04, the Number of galls amounted to 19.0 ± 11.0 and the “Number of galls per AR” value stood at 1.3 ± 0.8. In the data set on Meloidogyne graminicola (setting [7]), the “Fraction of small galls” value amounted to 0.95 ± 0.08, the Number of galls came out at 18.1 ± 13.1 and the “Number of galls per AR” value came out at 1.2 ± 0.7. The “mortality of seedlings from seeds coated with PA” value with Meloidogyne graminicola (PA seed coating, two out of ten in the control group, not statistically significant) is given as “four of ten”. Moreover, in the data set with Meloidogyne graminicola (setting [8]), the “Fraction of small galls” value worked out at 0.91 ± 0.06, the Number of galls stood at 25.3 ± 9.4 and the “Number of galls per AR” value was 1.4 ± 0.5. Also, in data set [3], the “germination of fungal spores on agar” value is “germinated normally” and the “mycelium growth compared to control agar” value was “slight (species-specific) growth retardation”.
The term IC50 denotes the midpoint of a concentration-inhibition curve. On to `O=C(O)/C=C/c1ccc2c(c1)OCO2` [MDCA, 3,4-methylenedioxycinnamic acid], for which, in data set [4], the IC50 was 5.07 µM.

Values taken from patent publication US11992011B2, “Compounds for controlling plant pathogens” (VIB VZW, priority 2017, dated 2024).
